Data set [1] relates to HIV-1APV ^R 5μM. Further details: method as in earlier work. The note with it: and 22, cited from earlier work; for EC50: MT-4 cells, p24 assay, previously reported, read-out: EC50 HIV-1APVR5M; for fold change in EC50 HIV-1APVR5M: compared to HIV-1NL4-3, previously reported data.
Data set [2] relates to HIV-1ERS104pre (wild-type). The note with it: PHA-PBMs, p24 assay, previously reported; and 22; read-out: EC50 HIV-1WT/ERS104pre; cited from earlier work.
Data set [3] has as its system HIV-1NL4-3. As to conditions: MT-4 cells, p24 assay, previously reported; and 22; cited from earlier work.
The test system of data set [4] is HIV-1MDR/G. Further details: method as in earlier work. The note with it: and 22, cited from earlier work; for EC50: PHA-PBMs, p24 assay, previously reported; for fold change in EC50 HIV-1MDR/G: compared to HIV-1WT/ERS104pre, previously reported data.
The subject of a further data set is HIV-1LAI. Nature of the data set: microbe, parasite or virus in culture. Format: cell-based. The procedure:
(§1) The susceptibility of HIV-1LAI or HIV-2ROD to various compounds was determined as previously described[20]–[22]. Briefly, MT-2 cells (10^4/ml) were exposed to 100 TCID50 of HIV-1LAI or HIV-2ROD in the presence or absence of various concentrations of compounds in 96-well plates and were incubated at 37 °C for 7 days. After incubation, 100 μl of the medium was removed from each well, 3-(4,5-dimetylthiazol-2-yl)-2,5-diphenyltetrazolium bromide (MTT) solution (10 μl, 7.5 mg/ml in PBS) was added to each well, followed by incubation at 37 °C for 2 h. […] To determine the sensitivity of clinically isolated HIV-1s to compounds, PHA-PBMC (10^6/ml) were exposed to 50 TCID50 of each HIV-1 and cultured in the presence or absence of various concentrations of compounds in 10-fold serial dilutions in 96-well plates. In determining the drug-susceptibility of certain laboratory HIV-1 strains, MT-4 cells were employed as target cells as previously described[23],[24]. MT-4 cells (10^5/ml) were exposed to 100 TCID50 of drug-resistant HIV-1s in the presence or absence of various concentrations of compounds and were incubated at 37 °C. On day 7, the supernatants were harvested and the amounts of p24 were determined by using a fully-automated chemiluminescent enzyme immunoassay system (Lumipulse f: Fujirebio, Tokyo)[35]–[37]. […] All assays were performed in duplicate, and EC50 shown in this report represent average values of two to four independent experiments. PHA-PBMCs were derived from a single donor in each independent experiment. The research protocols described in the present study were carried out in accordance with relevant guidelines and regulations, and were approved in Ethics Committee for Epidemiological and General Research at the Faculty of Life Sciences, Kumamoto University.

In the next data set the test system is HIV-2ROD. Nature of the data set: microbe, parasite or virus in culture. Format: cell-based. The procedure:
as §1

The next data set has as its system HIV-1_9510 ^R 36P. Nature of the data set: p24 production inhibition in MT-4 cells. The data set is classed as cell-based. The method, then:
as §1

Data set [5] concerns HIV-1APV ^R 5μM. Nature of the data set: p24 production inhibition in MT-4 cells. Format: cell-based. The procedure: as §1
Another data set relates to HIV-1ATV ^R 5μM. Nature of the data set: p24 production inhibition in MT-4 cells. Format: cell-based. The method, then: as §1
The next data set has as its system HIV-1LPV ^R 5μM. Nature of the data set: p24 production inhibition in MT-4 cells. The data set is classed as cell-based. The method, then: as §1
For data set [6], the system named is HIV-1NL4-3. Nature of the data set: p24 production inhibition in MT-4 cells. As to conditions: Human immunodeficiency virus 1, MT4, MT-4 cells, p24 Gag production, Table 3. Format: cell-based. The method, then:
as §1

For data set [7], the system named is HIV-192UG029 (subtype A, X4). Nature of the data set: p24 production inhibition in PHA-PBMC. Format: cell-based, HIV-1. As to conditions: Human immunodeficiency virus 1, read-out: EC50 HIV-192UG029 (subtype A, X4). The procedure: as §1
In data set [8] the test system is HIV-1ERS104pre (wild-type). Nature of the data set: p24 production inhibition in PHA-PBMC. The data set is classed as cell-based. As to conditions: Human immunodeficiency virus 1, PHA-PBMC, p24 Gag production. The procedure: as §1
The subject of another data set is HIV-1MDR/C. Nature of the data set: p24 production inhibition in PHA-PBMC. The data set is classed as cell-based. The method, then: as §1
Another data set deals with HIV-1BaL (subtype B, R5). Nature of the data set: p24 production inhibition in PHA-PBMC. The data set is classed as cell-based. As to conditions: Human immunodeficiency virus 1, PHA-PBMC, p24 Gag production. The procedure: as §1
Another data set deals with HIV-1MDR/TM. Nature of the data set: p24 production inhibition in PHA-PBMC. Format: cell-based. The procedure: as §1
The test system of another data set is HIV-1MDR/B. Nature of the data set: p24 production inhibition in PHA-PBMC. The data set is classed as cell-based. The method, then:
as §1

Data set [9] has as its system HIV-1MDRmix DRV ^R 20P. Nature of the data set: p24 production inhibition in PHA-PBMC. The data set is classed as cell-based. The procedure: as §1
Data set [10] concerns HIV-1MDR/G. Nature of the data set: p24 production inhibition in PHA-PBMC. Format: cell-based. The procedure: as §1
Data set [11] relates to HIV-1ME46 (subtype B, X4/R5). Nature of the data set: p24 production inhibition in PHA-PBMC. As to conditions: Human immunodeficiency virus 1, PHA-PBMC, p24 Gag production. The data set is classed as cell-based. The method, then:
as §1

A short description of data set [12]: Cytotoxicity against MT-2 cells (MTT assay). Format: cell-based. As to conditions: human. The procedure: as §1
On the technique in general: Tetrazolium assays rely on reduction of a dye to a coloured formazan, in cell work by metabolically active cells.

Data set [13] deals with HIV-1MDRmix DRV ^R 20P. The note with it: cited from earlier work.
Setting [14] is: number in parentheses, compared to HIV-1NL4-3.
Setting [15] is: Human immunodeficiency virus 1, PHA-PBMC, p24 Gag production.
[16] abbreviates: compared to EC50 for HIV-1ERS104pre.

Molecules are shown by their SMILES. Like-named read-outs stand apart in the source and are kept apart here.

Turning to `COc1ccc(S(=O)(=O)N(CC(C)C)C[C@@H](O)[C@H](Cc2ccccc2)NC(=O)OC2CO[C@H]3OCC(F)(F)[C@@H]23)cc1` (stereo partly drawn) [GRL-04810], the EC50 is 430 ± 20 nM in the data set on HIV-1APV ^R 5μM [1], 2.3 ± 0.1 nM in data set [2], 0.5 ± 0.5 nM with HIV-1NL4-3 [3] and 4 ± 1 nM in the data set with HIV-1MDR/G [4]. The “fold change in EC50 HIV-1APVR5M” value in the data set on HIV-1APV ^R 5μM [1] is listed as 860. Moreover, the “fold change in EC50 HIV-1MDR/G” value with HIV-1MDR/G [4] was 2.
As to `COC(=O)N[C@H](C(=O)N[C@@H](Cc1ccccc1)[C@@H](O)CN(Cc1ccc(-c2ccccn2)cc1)NC(=O)[C@@H](NC(=O)OC)C(C)(C)C)C(C)(C)C` [ATV, Atazanavir], the EC50 is 4 ± 1 nM with HIV-1LAI (Human immunodeficiency virus 1, MT2, MT-2 cells, 100 TCID50, MTT assay, read-out: EC50 Against HIV-1LAI); 17 ± 3 nM in the data set with HIV-2ROD (Human immunodeficiency virus 2, MT2, MT-2 cells, 100 TCID50, MTT assay, read-out: EC50 Against HIV-2ROD); 24 ± 1 nM in the data set on HIV-1_9510 ^R 36P (Human immunodeficiency virus 1, MT4, read-out: EC50 HIV-19510RP36); 371 ± 8 nM with HIV-1APV ^R 5μM [5] (Human immunodeficiency virus 1, MT4, read-out: EC50 HIV-1APV ^R 5μM, MT-4 cells, p24 Gag production); over 1000 nM with HIV-1ATV ^R 5μM (Human immunodeficiency virus 1, MT4, read-out: EC50 HIV-1ATV ^R 5μM, MT-4 cells, p24 Gag production); 38 ± 1 nM in the data set on HIV-1LPV ^R 5μM (Human immunodeficiency virus 1, MT4, read-out: EC50 HIV-1LPV ^R 5μM, MT-4 cells, p24 Gag production). The EC50 in the data set with HIV-1NL4-3 [6] is 4.3 ± 0.9 nM; in [7], 6 ± 3 nM; in data set [8], 3.1 ± 0.6 nM; with HIV-1MDR/C (setting [15]), 50 ± 20 nM; with HIV-1BaL (subtype B, R5), 2 ± 1 nM; in the data set on HIV-1MDR/TM (setting [15]), 71 ± 8 nM. Besides, the EC50 in the data set with HIV-1MDR/B (setting [15]) was 360 ± 160 nM; with HIV-1MDRmix DRV ^R 20P [9] (Human immunodeficiency virus 1, read-out: EC50 HIV-1MDRmix DRV ^R 20P, PHA-PBMC, p24 Gag production), over 1000 nM; in the data set with HIV-1MDR/G [10] (setting [15]) it was 30 ± 10 nM; in data set [11] it was 4.2 ± 0.5 nM. The “Selectivity Index (CC50/EC50) MT2/HIV-1LAI” value in the data set with HIV-1LAI (ratio of CC50 to EC50 against HIV-1LAI) is 8,100. Besides, the “Selectivity Index (CC50/EC50) MT2/HIV-2ROD” value with HIV-2ROD (ratio of CC50 to EC50 against HIV-2ROD) was 1,906. The “fold change of EC50 HIV-19510RP36” value with HIV-1_9510 ^R 36P (compared to EC50 for HIV-1NL4-3, Supplemental Table 3) is on record as 6. Besides, the “fold change of EC50 HIV-1APV ^R 5μM” value with HIV-1APV ^R 5μM [5] (setting [14]) was found to be 86. The “fold change of EC50 HIV-1ATV ^R 5μM” value in the data set on HIV-1ATV ^R 5μM (setting [14]) is on record as over 233. Moreover, the “fold change of EC50 HIV-1LPV ^R 5μM” value in the data set on HIV-1LPV ^R 5μM (setting [14]) was 9. The “fold change of EC50 HIV-1MDR/C” value with HIV-1MDR/C (setting [16]) is reported as 16. In the data set with HIV-1MDR/TM (setting [16]), the “fold change of EC50 HIV-1MDR/TM” value is recorded as 23. Further, in the data set on HIV-1MDR/B (setting [16]), the “fold change of EC50 HIV-1MDR/B” value is given as 116. Moreover, the “fold change of EC50 HIV-1MDRmix DRV ^R 20P” value with HIV-1MDRmix DRV ^R 20P [9] (setting [16]) is recorded as over 323. Also, the “fold change of EC50 HIV-1MDR/G” value in the data set on HIV-1MDR/G [10] (setting [16]) worked out at 10. Besides, it took 32400 ± 1000 nM to reach half-maximal cytotoxicity in [12] (CC50).
Turning to `CC(C)CN(C[C@@H](O)[C@H](Cc1ccccc1)NC(=O)O[C@H]1CO[C@H]2OCC(F)(F)[C@H]21)S(=O)(=O)c1ccc(N)cc1` [GRL-05010], the EC50 is 560 ± 30 nM with HIV-1APV ^R 5μM [1], 2.7 ± 0.3 nM in data set [2], 3.7 ± 0.1 nM with HIV-1NL4-3 [3] and 4 ± 1 nM in the data set on HIV-1MDR/G [4]. In addition, in the data set with HIV-1APV ^R 5μM [1], the “fold change in EC50 HIV-1APVR5M” value is 187. In addition, the “fold change in EC50 HIV-1MDR/G” value in the data set with HIV-1MDR/G [4] was 1.
In the case of `COc1ccc(S(=O)(=O)N(CC(C)C)C[C@@H](O)[C@H](Cc2ccccc2)NC(=O)O[C@H]2CO[C@H]3O[C@@H]4OCC[C@@H]4[C@H]32)cc1` [GRL-0519], the EC50 is 38 ± 0.9 nM in the data set with HIV-1APV ^R 5μM [1]; 30 ± 9.8 nM with HIV-1MDRmix DRV ^R 20P [13] (PHA-PBMs, p24 assay, previously reported, read-out: EC50 HIV-1MDRmixDRVR20P); 0.6 ± 0.2 nM in data set [2]; 0.5 ± 0.1 nM in the data set with HIV-1NL4-3 [3]; 2.6 ± 1.3 nM in the data set on HIV-1MDR/G [4]. Further, the “fold change in EC50 HIV-1APVR5M” value in the data set with HIV-1APV ^R 5μM [1] is listed as 76. The “fold change in EC50 HIV-1MDRmixDRVR20P” value in the data set on HIV-1MDRmix DRV ^R 20P [13] (compared to HIV-1WT/ERS104pre, previously reported data) is given as 50. The “fold change in EC50 HIV-1MDR/G” value with HIV-1MDR/G [4] is recorded as 4.

In general, CC50 refers to the concentration giving 50% cytotoxicity.

(Values after article PMC5613016, “GRL-09510, a Unique P2-Crown-Tetrahydrofuranylurethane -Containing HIV-1 Protease Inhibitor, Maintains Its Favorable Antiviral Activity against Highly-Drug-Resistant HIV-1 Variants in vitro” (Scientific Reports, 2017).)
